Results taken from US20120010135A1, “SPIRO DERIVATIVES FOR THE MODULATION OF STEAROYL-COA DESATURASE” (XENON PHARMACEUTICALS INC., priority 2009, published 2012).
Counter-ions that a name gives are not always drawn.

Tests used:
[1] = biological target: T1, stearoyl-CoA desaturase (SCD1) (Mus musculus, UniProt P13516); experiment: SCD microsomal assay using mouse liver microsomes (release of 3H2O from [9,10-3H]stearoyl-CoA); assay type: biochemical; conditions: 15 min incubation, 25° C.
T1 construct: Male ICR outbread mice, on a high-carbohydrate, low fat diet; from tissue; host or cells: liver microsomes of male ICR mice on a high-carbohydrate, low fat diet
T1 sequence (P13516 1-355): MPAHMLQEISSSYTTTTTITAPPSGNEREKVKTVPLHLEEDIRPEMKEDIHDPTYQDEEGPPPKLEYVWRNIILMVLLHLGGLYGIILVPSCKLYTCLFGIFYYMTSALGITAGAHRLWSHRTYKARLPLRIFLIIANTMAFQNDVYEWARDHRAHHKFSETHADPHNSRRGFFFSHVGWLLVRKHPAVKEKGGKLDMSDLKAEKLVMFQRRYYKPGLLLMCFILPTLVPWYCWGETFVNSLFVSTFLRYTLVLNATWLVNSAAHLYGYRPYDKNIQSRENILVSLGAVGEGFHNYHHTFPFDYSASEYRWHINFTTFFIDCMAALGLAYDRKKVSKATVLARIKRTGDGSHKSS
Description: The identification of compounds of the invention as SCD inhibitors was readily accomplished using the SCD enzyme and microsomal assay procedure described in Shanklin J. and Summerville C., Proc. Natl. Acad. Sci. USA (1991), Vol. 88, pp. 2510-2514.
Measuring Stearoyl-CoA Desaturase Inhibition Activity of a Test Compound Using Mouse Liver Microsomes
The identification of compounds of the invention as SCD inhibitors was readily accomplished using the SCD microsomal assay procedure described in Shanklin J. and Summerville C., Proc. Natl. Acad. Sci. USA (1991), Vol. 88, pp. 2510-2514.
Male ICR outbread mice, on a high-carbohydrate, low fat diet, under light halothane (15% in mineral oil) anesthesia are sacrificed by exsanguination during periods of high enzyme activity. Livers are immediately rinsed with cold 0.9% NaCl solution, weighed and minced with scissors. All procedures are performed at 4′C unless specified otherwise. Livers are homogenized in a solution (1/3 w/v) containing 025 M sucrose, 62 mM potassium phosphate buffer (pH 7.0), 0.15 M KCL 15 mM N-acetyleysteine, 5 mM MgCl2, and 0.1 mM EDTA using 4 strokes of a Potter-Elvehjem tissue homogenizer. The homogenate is centrifuged at 10,400×g for 20 min to eliminate mitochondria and cellular debris. The supernatant is filtered through a 3-layer cheesecloth and centrifuged at 105,000×g for 60 min. The microsomal pellet is gently resuspended in the same homogenization solution with a small glass/teflon homogenizer and stored at −70° C. The absence of mitochondrial contamination is enzymatically assessed. The protein concentration is measured using bovine serum albumin as the standard.
Desaturase activity is measured as the release of ^3H2O from [9,10-^3H]stearoyl-CoA. Reactions per assay point conditions are as follows: 2 μL 1.5 mM stearoyl-CoA, 0.25 μL 1 mCi/mL ^3H-stearoyl CoA, 10 μL 20 mM NADH, 36.75 μL 0.1 M PK buffer (K2HPO4/NaH2PO4, pH 7.2). The test compound or control solution is added in a 1 μL volume. Reactions are started by adding 50 μL of microsomes (1.25 mg/mL). The plates are mixed and after 15 min incubation on a heating block (25° C.), the reactions are stopped by the addition of 10 μL 60% PCA. An aliquot of 100 μL is then transferred to a fitter plate pretreated with charcoal and the plate centrifuged at 4000 rpm for 1 minute. The flow through containing the ^3H2O released by the SCD1 desaturation reaction is added to scintillation fluid and the radioactivity measured in a Packard TopCount. The data is analysed to identify the IC50 for test compounds and reference compounds.
The activity was defined in terms of % SCD enzyme activity remaining at the desired concentration of the test compound or as the IC50 concentration. The IC50 (affinity) of the example compounds toward the stearoyl-CoA desaturase is comprised between around […] and 0.0001 μM or between around […] 0.0001 μM or between around 1 μM and 0.0001 μM.

Row | IC50 [1] | melting point | SMILES
1 | 3 nM |  | CNC(=O)c1ccnc(NC(=O)N2CCC3(CCc4cccc(Cl)c4O3)CC2)c1 [Example 1.2, 8-chloro-N-(4-(methylcarbamoyl)pyridin-2-yl)spiro[chroman-2,4′-piperidine]-1′-carboxamide hydrochloride]
2 | 56 nM | 215 °C (dec.) | CNC(=O)c1ccnc(NC(=O)N2CCC3(CC2)CC(=O)c2cccc(Cl)c2O3)c1.Cl [Example 1.3, 8-chloro-N-(4-(methylcarbamoyl)pyridin-2-yl)-4-oxospiro[chroman-2,4′-piperidine]-1′-carboxamide hydrochloride]
3 |  | 175 to 176 °C | CNC(=O)c1ccnc(NC(=O)N2CCC3(CCc4cc(F)ccc4O3)CC2)c1 [Example 1.4, 6-fluoro-N-(4-(methylcarbamoyl)pyridin-2-yl)spiro[chroman-2,4′-piperidine]-1′-carboxamide]

Second part, the compound before the results:

Row | SMILES | IC50 [1] | melting point
4 | CNC(=O)c1ccnc(NC(=O)N2CCC3(CC2)CC(=O)c2ccc(F)cc2O3)c1 [Example 1, 7-fluoro-N-(4-(methylcarbamoyl)pyridin-2-yl)-4-oxospiro[chroman-2,4′-piperidine]-1′-carboxamide hydrochloride] | 524 nM | 
5 | CNC(=O)c1ccnc(NC(=O)N2CCC3(CCc4ccc(F)cc4O3)CC2)c1 [Example 1.1, 7-fluoro-N-(4-(methylcarbamoyl)pyridin-2-yl)spiro[chroman-2,4′-piperidine]-1′-carboxamide] | 17 nM | 177 to 179 °C
6 | CNC(=O)c1cccc(NC(=O)N2CCC3(CCc4ccc(F)cc4O3)CC2)n1 [Example 1.5, 7-fluoro-N-(6-(methylcarbamoyl)pyridin-2-yl)spiro[chroman-2,4′-piperidine]-it-carboxamide] |  | 126 to 128 °C
7 | CNC(=O)c1cncc(NC(=O)N2CCC3(CCc4ccc(F)cc4O3)CC2)c1 [Example 1.6, 7-fluoro-N-(5-(methylcarbamoyl)pyridin-3-yl)spiro[chroman-2,4′-piperidine]-1′-carboxamide] |  | 231 to 233 °C
8 | CNC(=O)c1ccnc(NC(=O)N2CCC3(CC2)Cc2ccccc2C3)c1 [Example 1.7, N-(4-(methylcarbamoyl)pyridin-2-yl)-1,3-dihydrospiro[indene-2,4′-piperidine]-1′-carboxamide] |  | 229 to 231 °C
9 | Cn1cc(CNC(=O)c2ccnc(NC(=O)N3CCC4(CCc5cc(F)ccc5O4)CC3)c2)cn1 [Example 2.1, 6-fluoro-N-(4-{[(1-methyl-1H-pyrazol-4-yl)methyl]carbamoyl}pyridin-2-yl)-3,4-dihydro-1′H-spiro[chromene-2,4′-piperidine]-1′-carboxamide hydrochloride] | 40 nM | 
10 | NC(=O)c1ccnc(NC(=O)N2CCC3(CCc4cc(F)ccc4O3)CC2)c1 [Example 3, N-(4-carbamoylpyridin-2-yl)-6-fluorospiro[chroman-2,4′-piperidine]-1′-carboxamide] |  | 265 to 267 °C
11 | Cc1nc(NC(=O)N2CCC3(CCc4ccc(F)cc4O3)CC2)sc1C(=O)NCc1ccccn1 [Example 4, 7-fluoro-N-(4-methyl-5-(pyridin-2-ylmethylcarbamoyl)thiazol-2-yl)spiro[chroman-2,4′-piperidine]-1′-carboxamide] | 48 nM | 165 to 167 °C
